According to US20240207192A1, “PHARMACEUTICAL COMPOSITIONS CONTAINING A PIPERIDINYL-METHYL-PURINE AMINE AND THEIR USE IN TREATING DISEASES AND CONDITIONS” (K36 THERAPEUTICS, INC., priority 2022, published 2024):
Where a name gives a salt, the structure may show the parent alone.

Legend:
Assay type in all cases: physicochemical
[1] = Storage stability of Formulations 1 to 4, related substances by HPLC; conditions: 40° C./75% relative humidity, capped glass vials
Method: An aliquot of each of Formulation 1, 2, 3, and 4 was subjected to stability testing. In particular, an amount of each formulation sufficient to provide 11.4 mg of Compound 1 was transferred to glass vials and then the vials were capped. The glass vials were stored at 40° C./75% relative humidity for three to six weeks. Samples were analyzed by HPLC to determine the amount of related substances in the formulation.

[2] = Storage stability of Formulations 5, 6 and 7, related substances by HPLC
Method: An aliquot of each of Formulation 5, 6, and 7 was subjected to stability testing. In particular, an amount of each formulation sufficient to provide 11.4 mg of Compound 1 was transferred to a glass vial bottle and then the bottle was capped. The glass vials were stored at (a) 40° C./NMT 25% relative humidity or (b) 40° C./75% relative humidity. Samples were analyzed by HPLC to determine the amount of related substances in the formulation.
(§1) Table 2 presents results for samples stored at 40° C./25% relative humidity. Table 3 presents results for samples stored at 40° C./75% relative humidity.

[3] = Storage stability of Formulations 8, 9 and 10, related substances
Method: An aliquot of each of Formulation 8, 9, and 10 was subjected to stability testing. In particular, an amount of each formulation sufficient to provide 14.3 mg of Compound 2 was transferred to a glass vial and then the vial was capped. The glass vials were stored at (a) 40° C./NMT 25% relative humidity or (b) 40° C./75% relative humidity. Samples were analyzed to determine the amount of related substances in the formulation.
as §1

[4] = 40° C./25% (NMT 25%) relative humidity

Row | SMILES | Percentage of Related Substances in the Formulation (% as Determined by HPLC), 3 Weeks Storage ([1]; 3 weeks) | Percentage of Related Substances in the Formulation (% as determined by HPLC), 6 Weeks Storage ([1]; 6 weeks) | Percentage of Related Substances in the Formulation (% as determined by HPLC), 2 Weeks Storage [2, 4] | Percentage of Related Substances in the Formulation (% as determined by HPLC), 4 Weeks Storage ([2]; 40° C./25% (NMT 25%) relative humidity, 4 weeks) | Percentage of Related Substances in the Formulation (% as determined by HPLC), 2 Weeks Storage ([2]; 40° C./75% relative humidity) | Percentage of Related Substances in the Formulation (% as determined by HPLC), 6 Weeks Storage ([2]; 40° C./75% relative humidity, 6 weeks) | Percentage of Related Substances in the Formulation (% as determined by HPLC), 2 Weeks Storage [3, 4] | Percentage of Related Substances in the Formulation (% as determined by HPLC), 4 Weeks Storage [3, 4] | Percentage of Related Substances in the Formulation (% as determined by HPLC), 6 Weeks Storage [3, 4] | Percentage of Related Substances in the Formulation (% as determined by HPLC), 2 Weeks Storage ([3]; 40° C./75% relative humidity) | Percentage of Related Substances in the Formulation (% as determined by HPLC), 4 Weeks Storage ([3]; 40° C./75% relative humidity) | Percentage of Related Substances in the Formulation (% as determined by HPLC), 6 Weeks Storage ([3]; 40° C./75% relative humidity)
1 | COc1cc(F)c(-c2cc(Cn3cnc4c(N)ncnc43)c(N3CCC[C@](N)([C@H](O)C(F)F)C3)cn2)cc1F [Compound 1, (S)-1-((R)-3-amino-1-(4-((6-amino-9H-purin-9-yl)methyl)-6-(2,5-difluoro-4-methoxyphenyl)pyridin-3-yl)piperidin-3-yl)-2,2-difluoroethan-1-ol D-Tartrate] | 0.42% | 0.41% | 0.56% | 0.57% | 0.57% | 0.57% | – | – | – | – | – | –
2 | COc1cc(F)c(-c2cc(Cn3cnc4c(N)ncnc43)c(N3CCC[C@](N)([C@H](O)C(F)F)C3)cn2)cc1F [Compound 2, (S)-1-((R)-3-amino-1-(4-((6-amino-9H-purin-9-yl)methyl)-6-(2,5-difluoro-4-methoxyphenyl)pyridin-3-yl)piperidin-3-yl)-2,2-difluoroethan-1-ol Fumarate] | – | – | – | – | – | – | 0.55% | 0.55% | 0.56% | 0.55% | 0.56% | 0.55%
